Assay [1] concerns the target T1, human CCR6 (Homo sapiens, UniProt P51684).
T1 sequence (P51684 1-374): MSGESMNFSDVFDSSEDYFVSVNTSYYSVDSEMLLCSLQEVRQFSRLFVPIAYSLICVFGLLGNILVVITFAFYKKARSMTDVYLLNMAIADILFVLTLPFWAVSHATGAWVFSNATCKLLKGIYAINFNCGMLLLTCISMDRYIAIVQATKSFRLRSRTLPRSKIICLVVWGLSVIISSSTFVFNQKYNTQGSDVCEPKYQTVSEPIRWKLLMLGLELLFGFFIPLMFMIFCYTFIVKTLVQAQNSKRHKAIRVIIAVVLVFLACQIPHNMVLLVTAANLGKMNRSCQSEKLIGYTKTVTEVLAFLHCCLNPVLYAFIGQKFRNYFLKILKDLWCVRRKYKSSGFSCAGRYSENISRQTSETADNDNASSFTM
In words: CHO-K1 CCR6 chemotaxis assay towards CCL20. It counts as cell-based. The settings on record: CHO-K1 cells overexpressing human CCR6; 100 ng/ml CCL20, 4 h; relative Log IC50. From the text: Cells overexpressing human CCR6 were used in the chemotaxis assay (DiscoverX, cAMP Hunter™ CHO-K1 CCR6 Gi Cell Line). Growth medium of these cells consisted of DMEM/F12, non-essential Amino acids (1×NEAA, Gibco 11140050), 10% FBS and 1× pen/strep (Gibco 15140). For the chemotaxis assay, Corning Transwell plates were used with a pore size of 8 m (Corning 351164). Cells were harvested using trypsin and diluted to 4*10^6 cells/ml in chemotaxis medium (DMEM, 0.25% BSA, pen/strep). Compounds were four-fold serially diluted in DMSO. Further dilutions were made in chemotaxis medium. Cells were incubated with test compounds for 30 min at 37° C. prior to initiation of the assay (2*10^6 cells/ml). Final DMSO concentration in the assay was 0.2%. Wells of the Transwell plates were filled with 200 μl chemotaxis medium containing 100 ng/ml CCL20 (R&D systems 360-MP). 50 μl of the cell/compound suspension was added to the inserts of the Transwell plates (100,000 cells/insert). The Transwell plates were placed in an incubator at 37° C., 5% CO2 for 4 h. After 4 h, the number of migrated cells was quantified using CellTiter Glo (Promega). Percentage inhibition values were calculated based on the low and high signal obtained with 0.2% DMSO in chemotaxis medium without and with CCL20, respectively. The relative Log IC50 was determined with GraphPad Prism 9 using a four-parameter dose-response model.

Assay [2] deals with T1, human CCR6. In words: Human CCR6-CRE reporter assay. Also noted: The second construct contained the open reading frame of human CCR6 in the pUNO1 backbone; host or cells: 293FT cells (transient transfection with TransIT-293). It counts as cell-based. The method, then:
293FT cells were transfected with 2 constructs using TransIT-293 (Mirus). The first construct (pGL4.29, Promega) expressed the luciferase reporter gene luc2P in response to the binding of cAMP-induced CREB to the CREelement in its promoter. The second construct contained the open reading frame of human CCR6 in the pUNO1 backbone under the control of an enhanced CMV promoter(InVivoGen).48 h after transfection, cells were harvested and diluted to 750,000 cells/ml in culture medium (DMEM, 10% FBS, 1× pen/strep(Gibco 15140)). Compounds were 2.5-fold serially diluted in DMSO. Further dilutions were made in assay medium (DMEM, 10% FBS, 1× pen/strep, 6 μM Forskolin, 6 nM CCL20). 4 μl of the compound solution was added to a white MW384 plate, followed by […] of the cell suspension. Final DMSO concentration in the assay was 0.1%. The MW384 plate was placed in an incubator at 37° C., 5% CO2 for 5 h. Luciferase activity was determined by addition of 24 μl of a 2.5× diluted BriteLite luciferase solution(Perkin Elmer), followed by luminescence measurement using a VICTOR Plate reader (Perkin Elmer). […] The relative Log IC50 was determined with GraphPad Prism 9 using a four-parameter dose-response model.

[3] abbreviates: 293FT cells transfected with human CCR6 and CRE-luciferase, Forskolin + CCL20, 5 h, relative Log IC50, read-out: CCR6-CRE reporter (converted).

Experimental findings from US20250353859A1, “COMPOUNDS AS CCR6 INHIBITORS” (Hoffmann-La Roche Inc., priority 2023, published 2025) are described below.

Take `N#Cc1n[nH]c2ccc(-c3ccc(S(=O)(=O)N4CCC(Nc5ccc(OC(F)(F)F)cc5)CC4)cc3)cc12` [Example 14, 5-{4-[(4-{[4-(trifluoromethoxy)phenyl]Amino}piperidin-1-yl)sulfonyl]phenyl}-1H-indazole-3-carbonitrile]: the IC50 against human CCR6 [1] is 20 nM; at human CCR6 [2] (setting [3]), 63.1 nM.
On human CCR6 [1], `N#Cc1c[nH]c2ccc(-c3ccc(S(=O)(=O)N4CCC(Nc5ccc(OC(F)(F)F)cn5)CC4)cc3)cc12` [Example 15, 5-{4-[(4-{[5-(trifluoromethoxy)pyridin-2-yl]Amino}piperidin-1-yl)sulfonyl]phenyl}-1H-indole-3-carbonitrile] had an IC50 of 10 nM.
The same measure, in the same setting: to `O=c1[nH]nc2ccc(-c3ccc(S(=O)(=O)N4CCC(Nc5ccc(OC(F)(F)F)cc5)CC4)cc3)cn12` [Example 23, 6-{4-[(4-{[4-(trifluoromethoxy)phenyl]Amino}piperidin-1-yl)sulfonyl]phenyl}-2H,3H-[1,2,4]triazolo[4,3-a]pyridin-3-one] belongs 39.8 nM.
With `O=c1[nH]nc2ccc(-c3ccc(S(=O)(=O)N4CCC(Nc5ccc(OC(F)(F)F)cn5)CC4)cc3)cn12` [Example 24, 6-{4-[(4-{[5-(trifluoromethoxy)pyridin-2-yl]Amino}piperidin-1-yl)sulfonyl]phenyl}-2H,3H-[1,2,4]triazolo[4,3-a]pyridin-3-one], the results for the IC50 at human CCR6 [1] and at human CCR6 [2] (setting [3]) were 31.6 nM and 79.4 nM, respectively.
On to `N#Cc1c[nH]c2ccc(-c3ccc(S(=O)(=O)N4CCC(Nc5ccc(OC(F)F)cc5)CC4)cc3)cc12` [Example 29, 5-{4-[(4-{[4-(difluoromethoxy)phenyl]Amino}piperidin-1-yl)sulfonyl]phenyl}-1H-indole-3-carbonitrile], for which the IC50 against human CCR6 [1] is 126 nM.
Take `Cc1cc(-c2ccc(S(=O)(=O)N3CCC(Nc4ccc(SC(F)(F)F)cc4)CC3)cc2)cn2c(C(C)C)cnc12` [Example 33, 1-{4-[8-methyl-3-(propan-2-yl)imidazo[1,2-a]pyridin-6-yl]benzenesulfonyl}-N-{4-[(trifluoromethyl)sulfanyl]phenyl}piperidin-4-amine]: the IC50 against human CCR6 [1] was 20 nM; on human CCR6 [2] (setting [3]), 100 nM.
As to `Cc1cnc2ccc(-c3ccc(S(=O)(=O)[C@H]4CC[C@H](Nc5ccc(OC(F)(F)F)cc5)CC4)cc3)cn12` [Example 41, N-[trans-4-(4-{3-methylimidazo[1,2-a]pyridin-6-yl}benzenesulfonyl)cyclohexyl]-4-(trifluoromethoxy)aniline], the IC50 against human CCR6 [1] is 63.1 nM; on human CCR6 [2] (setting [3]), 158 nM.
For `Cc1cnc2ccc(-c3ccc(S(=O)(=O)[C@H]4CC[C@H](Nc5ccc(OC(F)(F)F)cn5)CC4)cc3)cn12` [Example 42, N-[trans-4-(4-{3-methylimidazo[1,2-a]pyridin-6-yl}benzenesulfonyl)cyclohexyl]-5-(trifluoromethoxy)pyridin-2-amine], in that order: 79.4 nM and 158 nM.
The matching figures for `O=S(=O)(c1ccc(-c2ccc3nccn3c2)cc1)[C@H]1CC[C@H](Nc2ccc(OC(F)(F)F)cc2)CC1` [Example 43, N-[trans-4-(4-{imidazo[1,2-a]pyridin-6-yl}benzenesulfonyl)cyclohexyl]-4-(trifluoromethoxy)aniline]: 79.4 nM and 79.4 nM.
On to `N=S(=O)(c1ccc(-c2ccc3nccn3c2)cc1)[C@H]1CC[C@H](Nc2ccc(OC(F)(F)F)cn2)CC1` (stereo partly drawn) [Example 54, (4-{imidazo[1,2-a]pyridin-6-yl}phenyl)[trans-4-{[5-(trifluoromethoxy)pyridin-2-yl]Amino}cyclohexyl](imino)-λ^6-sulfanone], for which the IC50 at human CCR6 [2] (setting [3]) was 631 nM.
On to `CC(C)c1nnc2ccc(-c3ccc(S(=O)(=O)N4CCC(Nc5ccc(OC(F)(F)F)cn5)CC4)cc3)cn12` [Example 56, N-(1-{4-[3-(propan-2-yl)-[1,2,4]triazolo[4,3-a]pyridin-6-yl]benzenesulfonyl}piperidin-4-yl)-5-(trifluoromethoxy)pyridin-2-amine], for which, at human CCR6 [2] (setting [3]), the IC50 was 31.6 nM.
On to `NC(=O)c1cc(-c2ccc(S(=O)(=O)N3CCC(Nc4ccc(OC(F)(F)F)cn4)CC3)cc2)ccn1` [Example 58, 4-{4-[(4-{[5-(trifluoromethoxy)pyridin-2-yl]amino}piperidin-1-yl)sulfonyl]phenyl}pyridine-2-carboxamide], for which the IC50 on human CCR6 [2] (scaffold variant X = O, R1 = CF3, read-out: Activity in human CCR6-CRE reporter assay) came to 62 nM.
As to `Cc1nnc2ccc(-c3ccc(S(=O)(=O)N4CCC(Nc5ccc(OC(F)(F)F)cn5)CC4)cc3)cn12` [Example 60, N-[1-(4-{3-methyl-[1,2,4]triazolo[4,3-a]pyridin-6-yl}benzenesulfonyl)piperidin-4-yl]-5-(trifluoromethoxy)pyridin-2-amine], the IC50 on human CCR6 [2] (setting [3]) is 39.8 nM.
Same read-out and setting: as for `Cc1cc(-c2ccc(S(=O)(=O)N3CCC(Nc4ccc(SC(F)(F)F)cn4)CC3)cc2)cn2c(C(C)C)cnc12` [Example 61, N-(1-{4-[8-methyl-3-(propan-2-yl)imidazo[1,2-a]pyridin-6-yl]benzenesulfonyl}piperidin-4-yl)-5-[(trifluoromethyl)sulfanyl]pyridin-2-amine], the figure is 63.1 nM.
Regarding `O=S(=O)(c1ccc(-c2ccc3nccn3c2)cc1)N1CCC(Nc2ccc(SC(F)(F)F)cn2)CC1` [Example 62, N-[1-(4-{imidazo[1,2-a]pyridin-6-yl}benzenesulfonyl)piperidin-4-yl]-5-[(trifluoromethyl)sulfanyl]pyridin-2-amine], the IC50 on human CCR6 [2] (scaffold variant X = S, R1 = CF3, read-out: Activity in human CCR6-CRE reporter assay) worked out at 50 nM.
Take `CC(C)c1cnc2ccc(-c3ccc(S(=O)(=O)N4CCC(Nc5ccc(SC(F)(F)F)cn5)CC4)cc3)cn12` [Example 64, N-(1-{4-[3-(propan-2-yl)imidazo[1,2-a]pyridin-6-yl]benzenesulfonyl}piperidin-4-yl)-5-[(trifluoromethyl)sulfanyl]pyridin-2-amine]: on human CCR6 [2] (setting [3]), the IC50 was 39.8 nM.
As for `Cc1cc(-c2ccc(S(=O)(=O)N3CCC(Nc4cc(OC(F)(F)F)ccn4)CC3)cc2)cn2c(C(C)C)cnc12` [Example 69, N-(1-{4-[8-methyl-3-(propan-2-yl)imidazo[1,2-a]pyridin-6-yl]benzenesulfonyl}piperidin-4-yl)-4-(trifluoromethoxy)pyridin-2-amine], the IC50 on human CCR6 [2] (setting [3]) is 1260 nM.
Regarding `CC(C)c1nnc2ccc(-c3ccc(S(=O)(=O)N4CCC(Nc5cc(OC(F)(F)F)ccn5)CC4)cc3)cn12` [Example 70, N-(1-{4-[3-(propan-2-yl)-[1,2,4]triazolo[4,3-a]pyridin-6-yl]benzenesulfonyl}piperidin-4-yl)-4-(trifluoromethoxy)pyridin-2-amine], the IC50 on human CCR6 [2] (setting [3]) is 3160 nM.
For `Cc1cc(-c2ccc(S(=O)(=O)N3CCC(Nc4cc(OC(F)(F)F)ccn4)CC3)cc2)cn2c(C(C)C)nnc12` [Example 71, N-(1-{4-[8-methyl-3-(propan-2-yl)-[1,2,4]triazolo[4,3-a]pyridin-6-yl]benzenesulfonyl}piperidin-4-yl)-4-(trifluoromethoxy)pyridin-2-amine], at human CCR6 [2] (setting [3]), the IC50 is 1000 nM.
On the same count and under the same terms, as for `O=S(=O)(c1ccc(-c2ccc3nccn3c2)cc1)[C@H]1CC[C@H](Nc2ccc(OC(F)(F)F)cn2)CC1` [Example 73, N-[trans-4-(4-{imidazo[1,2-a]pyridin-6-yl}benzenesulfonyl)cyclohexyl]-5-(trifluoromethoxy)pyridin-2-amine], the figure is 126 nM.
